Test results reported in EP1795186B1, “Flupirtin comprising medicament formulation with a controlled release of the active agent” (TEVA GmbH, priority 2005, dated 2007).

Test: Solubility in hydrochloric acid (gastric juice)
Format: physicochemical

Löslichkeit in Salzsäure (Magensaft): löslich
Compound: CCOC(=O)Nc1ccc(NCc2ccc(F)cc2)nc1N [Flupirtinmaleat]
